Patent US8008461B2, “Carbonyl reductase, gene therefor and use thereof” (Kaneka Corporation, priority 2004, dated 2011)

Test system: purified polypeptide (carbonyl reductase)
Experiment: Substrate specificity of polypeptide (NADPH-dependent reduction of carbonyl compounds)
Format: biochemical, Candida magnoliae strain NBRC0661
Settings: 1 mM substrate, 0.25 mM NADPH, pH 6.5, 30° C.; relative to activity to 3-oxo-3-phenylpropanenitrile

CCC(C)=O [2-butanone]
Relative activity: 181%

CC(=O)C1CC1 [cyclopropyl methyl ketone]
Relative activity: 181%

CC(=O)CCO [4-hydroxy-2-butanone]
Relative activity: 301%

COC(=O)C(C)=O [methyl pyruvate]
Relative activity: 9450%

CC(=O)c1ccc(F)cc1 [p-fluoroacetophenone]
Relative activity: 722%

CCC(=O)c1ccccc1 [propiophenone]
Relative activity: 3010%

CC(=O)CC(=O)OCc1ccccc1 [benzyl acetoacetate]
Relative activity: 4936%

CCOC(=O)CC(C)=O [ethyl acetoacetate]
Relative activity: 903%

COc1ccc(C(C)=O)cc1OC [3,4-dimethoxyacetophenone]
Relative activity: 2889%

CCCCC(C)=O [2-hexanone]
Relative activity: 602%

CC(=O)c1ccncc1 [4-acetylpyridine]
Relative activity: 15710%

CC(=O)c1ccccn1 [2-acetylpyridine]
Relative activity: 1926%

CC(=O)c1cccc([N+](=O)[O-])c1 [m-nitroacetophenone]
Relative activity: 5056%

CCOC(=O)CC(=O)c1ccccc1 [ethyl benzoylacetate]
Relative activity: 7704%

O=C(CO)c1ccccc1 [2-hydroxyacetophenone]
Relative activity: 1806%

N#CCC(=O)c1ccccc1 [3-oxo-3-phenylpropanenitrile]
Relative activity: 100%

CC(=O)CCc1ccccc1 [benzylacetone]
Relative activity: 241%

CC(=O)CO [hydroxyacetone]
Relative activity: 361%

CC(=O)CC(C)C [4-methyl-2-pentanone]
Relative activity: 60%

CCC(=O)Cc1ccccc1 [1-phenyl-2-butanone]
Relative activity: 1144%

CCC(=O)C(=O)O [2-keto-n-butyric acid]
Relative activity: 1866%

CCOC(=O)CC(=O)CCl [ethyl 4-chloroacetoacetate]
Relative activity: 8547%

O=C(O)CC(=O)C(=O)O [oxalacetic acid]
Relative activity: 421%

CC(=O)c1cccnc1 [3-acetylpyridine]
Relative activity: 2107%

CC(=O)c1ccccc1 [acetophenone]
Relative activity: 1023%

O=C(CCl)c1cccc(Cl)c1 [2-chloro-1-(3′-chlorophenyl)ethanone]
Relative activity: 10473%

CC(=O)c1ccc(C)cc1 [p-methylacetophenone]
Relative activity: 542%

CCCCCC(C)=O [2-heptanone]
Relative activity: 782%

CC(=O)c1ccc(Cl)cc1 [p-chloroacetophenone]
Relative activity: 2347%
